How the values were obtained:
[1] = test system: B6C3-Tg (APPswe, PSEN1-dE9) 85Dbo/j mice; details: intravenous injections of HAEE; control animals 14.2 ± 3.1; cited from earlier work
From the text: (§1) The tetrapeptide HAEE had been proposed as one of the candidate molecules for inhibiting cerebral amyloidogenesis in AD [7]. This peptide is a synthetic analogue of the 35-His-Ala-Glu-Glu-38 (35-HAEE-38) fragment of the extracellular N-terminal domain of subunit α4 of the α4β2 nAChR. This fragment (conservative for humans, mice and chicken) forms the interface for the interaction of α4β2 nAChR with Aβ [5]. It has been previously shown by molecular modeling methods that this interaction is stabilized by ion bridges between the complementary charged side groups of the H/E and E/H amino acid ...

[2] = test system: α4β2 nAChR; details: model oocytes, exogenous HAEE; cited from earlier work
From the text: as §1

[3] = Pharmacokinetics of HAEE in rat blood after single i.v. bolus (dose dependence, chronic administration); details: for Cmax (maximum concentration in the blood) / AUC(0–∞) / T1/2(el) (elimination half-life) / Tmax: rat blood; for Cmax (maximum concentration in the blood): n = 6, sampling 2-30 min; for AUC(0–∞) / T1/2(el) (elimination half-life) / Tmax / ClT (total body clearance) / Kel (elimination rate constant, central compartment) / MRT (residence time) / Vd(c) (volume of distribution in the central compartment at Cmax) / Vd(extrap) / Vd(β) (volume of distribution in the elimination phase): n = 6
Experimental: In experiments on rats (Table 1, experimental groups 2–5), intravenous (i.v.) administration of the peptide and blood sampling were performed through the jugular veins. For this, in rats anesthetized with a mixture of ketamine (91 mg/kg) and xylazine (9.1 mg/kg), on the ventral side, in the area adjacent to the forelimbs and neck, two longitudinal skin incisions about 2.5 cm long were made on the right and left, and the jugular veins were dissected. An intravenous Flexicath G24 catheter (for heparin and peptide administration) (Medica LLC, Ivanovo, Russia) was installed in the left jugular vein and Flexicath G22 (for blood collection) in the right jugular vein. To prevent blood coagulation, 80 μL of heparin (5000 I.U./mL) was injected through the Flexicath G24 port before the injection of the peptide, and after 5 min a mixture of HAEE and [^3H]HAEE (400 μCi, in doses of 50, 300 or 900 μg/kg) in 200 μL of saline solution was injected for 10–15 s. Following that, after 2, 4, 6, 10, 20 and 30 min, approximately 0.3 mL of venous blood was collected into pre-weighed plastic tubes. After collection, the blood tubes were immediately frozen in liquid nitrogen and weighed. Before the pharmacokinetic study, rats in experimental group 5 were injected daily with i.p. peptide HAEE at a dose of 300 μg/kg for 28 days.
Frozen and weighed tissue samples in plastic tubes were freeze-dried for 48 h. The freeze-dried tissue samples were heated at 65 °C for 30 min, after which they were homogenized, and the peptide fraction was extracted with 90% aqueous acetonitrile containing 1% TFA [13]. To facilitate HPLC analysis of radioactively labeled HAEE and normalize the loss of the peptide during extraction, 10 μg of HAEE was added to the extraction solution for each sample. After centrifugation, the solution containing HAEE and blood components was dried under reduced pressure, stripped with methanol and re-centrifuged. The resulting solution containing a mixture of HAEE and [^3H]HAEE was subjected to evaporation under reduced pressure, re-extraction with 0.1% aqueous TFA solution and subsequent centrifugation. Quantitative analysis of the HAEE peptide was performed using HPLC on a Kromasil C18 column, 4 × 150 mm (Nouryon-Separation Products, Bohus, Sweden) in methanol concentration gradient (12–26% for 13 min), in 0.1% HFBA (heptafluorobutyric acid). The fraction containing the HAEE peptide was collected and its [^3H]HAEE content was determined by liquid scintillation counting. The obtained radioactivity value was normalized to the area of the HAEE peak in the chromatogram (UV absorbance at 220 nm).
To calculate the pharmacokinetic parameters, we used the values of HAEE peptide concentrations in blood and tissues averaged over three (rabbit) or six (rats and mice) animals. All quantitative values are given as means ± standard deviation. The calculation of pharmacokinetic parameters was performed by combining the model and non-model approaches using the software Borgia 1.03 (NPP Nauka Plus, Rovno, Ukraine) and SigmaPlot 11.0 (Systat Software, San Jose, CA, USA).

[4] = single i.v. bolus 300 μg/kg after a 28 day course of unlabeled HAEE 300 μg/kg/day
[5] = rat, i.v. bolus, range over doses of 50, 300 and 900 µg/kg
[6] = rat, single i.v. bolus 50 μg/kg
[7] = rat, single i.v. bolus 300 μg/kg after a 28 day course of unlabeled HAEE 300 μg/kg/day

Which “Average number of amyloid plaques in a brain section” value [1] does the source give for Acetyl-His-Ala-Glu-Glu-Amide [HAEE] here?
The value was 5.8 ± 2.1.

What about the “Effect on amyloid aggregates formed upon contact with α4β2 nAChR” value [2] of the same substance?
Its value is “are destroyed”.

And the “Cmax (maximum concentration in the blood)” value ([3]; single i.v. bolus 50 μg/kg HAEE + [3H]HAEE, HPLC + liquid scintillation)?
Its value is 73.9 ng/mL.

And the “AUC(0–∞)” value ([3]; single i.v. bolus 50 μg/kg)?
The value was 1383 (ng/mL) × min.

What about the “T1/2(el) (elimination half-life)” value ([3]; single i.v. bolus 50 μg/kg) of the same substance?
Its value is 23 min.

And the Tmax ([3]; single i.v. bolus 50 μg/kg)?
Its Tmax is 4 min.

And the “Cmax (maximum concentration in the blood)” value ([3]; single i.v. bolus 300 μg/kg HAEE + [3H]HAEE, HPLC + liquid scintillation)?
The value was 439 ng/mL.

And the “AUC(0–∞)” value [3, 4]?
The value was 12,137 (ng/mL) × min.

What about the “T1/2(el) (elimination half-life)” value [3, 4] of the same substance?
Its value is 29 min.

And the Tmax [3, 4]?
The Tmax was 4 min.

And the “Cmax (maximum concentration in the blood)” value [3, 4]?
The value was 444 ng/mL.

And the “AUC(0–∞)” value ([3]; single i.v. bolus 300 μg/kg)?
The value was 11,340 (ng/mL) × min.

What about the “T1/2(el) (elimination half-life)” value ([3]; single i.v. bolus 300 μg/kg) of the same substance?
Its value is 22 min.

What about the Tmax ([3]; single i.v. bolus 300 μg/kg) of the same substance?
Its Tmax is 4 min.

And the “Cmax (maximum concentration in the blood)” value ([3]; single i.v. bolus 900 μg/kg HAEE + [3H]HAEE, HPLC + liquid scintillation)?
The value was 1322 ng/mL.

And the “AUC(0–∞)” value ([3]; single i.v. bolus 900 μg/kg)?
Its value is 47,133 (ng/mL) × min.

And the “T1/2(el) (elimination half-life)” value ([3]; single i.v. bolus 900 μg/kg)?
The value was 25 min.

What about the Tmax ([3]; single i.v. bolus 900 μg/kg) of the same substance?
Its Tmax is 4 min.

What about the ClT [3, 5] of the same substance?
The ClT was 6.7 to 13 mL/min.

And the MRT [3, 5]?
The MRT was 32 to 36 min.

And the “T1/2(el)” value [3, 5]?
The value was 22 to 25 min.

What about the “ClT (total body clearance)” value [3, 6] of the same substance?
The value was 13.0 mL/min.

And the “Kel (elimination rate constant, central compartment)” value [3, 6]?
The value was 0.031 min⁻¹.

And the “MRT (residence time)” value [3, 6]?
The value was 33 min.

And the “Vd(c) (volume of distribution in the central compartment at Cmax)” value [3, 6]?
Its value is 107 mL.

What about the “Vd(extrap)” value [3, 6] of the same substance?
Its value is 504 mL.

And the “Vd(β) (volume of distribution in the elimination phase)” value [3, 6]?
The value was 425 mL.

What about the “ClT (total body clearance)” value [3, 7] of the same substance?
Its value is 8.7 mL/min.

What about the “Kel (elimination rate constant, central compartment)” value [3, 7] of the same substance?
The value was 0.024 min⁻¹.

And the “MRT (residence time)” value [3, 7]?
Its value is 42 min.

And the “Vd(c) (volume of distribution in the central compartment at Cmax)” value [3, 7]?
Its value is 111 mL.

And the “Vd(extrap)” value [3, 7]?
Its value is 382 mL.

What about the “Vd(β) (volume of distribution in the elimination phase)” value [3, 7] of the same substance?
The value was 362 mL.
